Values of other authors as cited in EP1227812B1 (SCHERING CORPORATION, priority 1999, dated 2001).

Details: eight subjects tested, topical azatadine

Structure (SMILES): CN1CCC(=C2c3ccccc3CCc3cccnc32)CC1 [Azatadine, azatadine]
- drowsiness: drowsiness in one of the eight subjects tested
